Data reported in ChEMBL document CHEMBL1122072, “Structure-activity correlations of cytochalasins. Novel halogenated and related cytochalasin C and D derivatives” (1982).

Test system: Ehrlich
Assay: (§1) Evaluated for the inhibition of cell-free gelation in Ehrlich Ascites tumor extracts
Type: functional
Conditions: Mus musculus, read-out: ID50 (the source's name)

IC50 [nM]	Compound
740	CC(=O)OC1/C=C\C(C)(O)C(=O)C(C)C/C=C/C2C(O)C(CBr)=C(C)C3C(Cc4ccccc4)NC(=O)C123 (configuration not stated)
880	CC(=O)OC1/C=C\C(C)(O)C(=O)C(C)C/C=C/C2C(O)C(CN=[N+]=[N-])=C(C)C3C(Cc4ccccc4)NC(=O)C123 (configuration not stated)
600	CC(=O)OC1/C=C\C(C)(O)C(=O)C(C)C/C=C/C2C(O)C(CI)=C(C)C3C(Cc4ccccc4)NC(=O)C123 (configuration not stated)

Compound	IC50 [nM]
C=C1C(C)C2C(Cc3ccccc3)NC(=O)C23C(OC(C)=O)/C=C\C(C)(O)C(=O)C(C)C/C=C/C3C1O (configuration not stated)	210
CC(=O)OC1/C=C\C(C)(O)C(=O)C(C)C/C=C/C2C(O)C(C)=C(C)C3C(Cc4ccccc4)NC(=O)C123 (configuration not stated)	350

Organism: Mus musculus
Assay: as §1
Type: functional
Conditions: not given

Compound	ID50 [nM]
CC(=O)OC1/C=C\C(C)(O)C(=O)C(C)C/C=C/C2C(O)C(CC#N)=C(C)C3C(Cc4ccccc4)NC(=O)C123 (configuration not stated)	7700
CC(=O)OC1/C=C\C(C)(O)C(=O)C(C)C/C=C/C2C(O)C(Br)(CBr)C(C)C3C(Cc4ccccc4)NC(=O)C123 (configuration not stated)	4500
